9 molecules from US7115690B2, “Fluorine-containing polymer, resist composition prepared from same and novel fluorine-containing monomer” (Daikin Industries, Ltd., priority 2001, dated 2006) can be followed below.

“And” between values parts separate entries of the source, which are not always exact repeats. Equal entries are not always repeated.

A short description of data set [1]: Measurement of pKa value by NaOH titration in water/acetone. Conditions: for pKa: water/acetone mixture (10/15 ml).
Description: (§1) In a water/acetone mixture (10/15 ml) solution was put 0.4045 g of the above-mentioned cyclopentene derivative, followed by stirring at room temperature. After it was confirmed that the solution became homogeneous, titration was carried out with about 0.2 mol/liter NaOH solution. A titration curve was obtained by adding a NaOH solution dropwise in increments of 0.15 ml and recording a pH value at every addition. An equivalence point was determined by an inflection point (maximum differential value of titration curve=dpH/dml) of the titration curve. […] From a titration curve of water/acetone solution and aqueous solution which had been measured previously as a blank solution, a difference in a pH value derived from an electric potential difference between the solutions at titration of 4.0 ml was 1.50.
The nature of data set [2]: physchem. Conditions: (2) pKa.
Description: as §1
[3] abbreviates: (2) pKa, titration with about 0.2 mol/liter NaOH in water/acetone, corrected with blank.
Where [4] appears, read: titration with about 0.2 mol/liter NaOH in water/acetone, corrected with blank.

`OC(C1C=CCC1)(C(F)(F)F)C(F)(F)F` (centres unmarked) [Example 12, cyclopentene having —C(CF3)2OH group]: the “pKa value (single titration)” value in data set [1] (individual titrations of 0.4045 g, 0.8104 g and 0.9812 g in water/acetone (10/15 ml), listed as cyclopentene derivative having —C(CF3)2OH group) was 9.95 and 9.86. The pKa in data set [1] (setting [3]) worked out at 9.8; in data set [1] (pKa value (single titration), individual titrations of 0.4045 g, 0.8104 g and 0.9812 g in water/acetone (10/15 ml)) it was 9.62.
For the molecule CF2═CF—C(CF3)2OH [reference compound], in data set [1] (setting [4]), the “(2) pKa” value came out at 7.1.
Consider `OC(C1CC2C=CC1C2)(C(F)(F)F)C(F)(F)F` (centres unmarked), for which the pKa in data set [1] (setting [3]) is 10.2.
For `OC(C(F)(F)F)(C(F)(F)F)C1(F)C2C=CC(C2)C1(F)F` (centres unmarked), the pKa in data set [2] turned out to be 8.3.
For `OC1(C(F)(F)F)C2C=CC(C2)C1(F)F` (centres unmarked), the pKa in data set [1] (setting [3]) was determined as 11.5.
Still for that read-out and setting: the same measure for `OC(C(F)(F)F)(C(F)(F)F)C1(F)CC2C=CC1C2` (centres unmarked): 9.
For the molecule `OC(C(F)(F)F)C(F)(F)F` [CF3CH(CF3)—OH, reference compound], the “(2) pKa” value in data set [1] (setting [4]) is recorded as 9.3.
Consider CH2═CHCH2C(CF3)2OH [reference compound], for which the “(2) pKa” value in data set [1] (setting [4]) is recorded as 9.6.
On to CH2═CF—C(CF3)2OH [reference compound], for which the “(2) pKa” value in data set [1] (setting [4]) was 8.0.

Usually pKa stands for the pH at which an ionisable group is half protonated.
